Results taken from patent US9560851B2, “Pesticidal mixtures including spiroheterocyclic pyrrolidine diones” (Syngenta Participations AG, priority 2012, dated 2017).

Tests used:
[1] = tested on: Myzus persicae (Green Peach Aphid); assay: Myzus persicae feeding/residual contact activity, preventive (sunflower leaf discs); type: in vivo; conditions: Acetamiprid alone, 6 DAT
Protocol: Myzus persicae (Green Peach Aphid):
feeding/residual contact activity, preventive
Sunflower leaf discs were placed on agar in a 24-well microtiter plate and sprayed with the DMSO test solutions of Mixtures (as provided by Table 45). After drying, the leaf discs were infested with an aphid population of mixed ages. After an incubation period of 6 DAT (days after treatment), samples were checked for mortality.

[2] = tested on: Tetranychus urticae (Two-Spotted Spider Mite); assay: Tetranychus urticae feeding/contact activity, preventive (bean leaf discs); type: in vivo; conditions: mobile stages
Source text: Tetranychus urticae (Two-Spotted Spider Mite): feeding/contact activity, preventive
Bean leaf discs on agar in 24-well microtiter plates were sprayed with the DMSO test solutions of certain Mixtures (as provided by Table 45). After drying, the leaf discs were infested with mite populations of mixed ages. 8 days later, discs were checked for mortality against mobile stages.

C/C(=N\C#N)N(C)Cc1ccc(Cl)nc1 [Acetamiprid]
0%: AVERAGE DEAD IN % AFTER 6 DAYS ([1]; 0.1 PPM AI) | AVERAGE DEAD IN % AFTER 6 DAYS ([1]; 0.2 PPM AI) | AVERAGE DEAD IN % AFTER 6 DAYS ([1]; 0.4 PPM AI) | AVERAGE DEAD IN % AFTER 6 DAYS ([1]; 0.8 PPM AI) | AVERAGE DEAD IN % AFTER 8 DAYS ([2]; Table 47, Acetamiprid alone, 50 PPM AI) | AVERAGE DEAD IN % AFTER 8 DAYS ([2]; Table 47, Acetamiprid alone, 100 PPM AI) | AVERAGE DEAD IN % AFTER 8 DAYS ([2]; Table 47, Acetamiprid alone, 200 PPM AI) | AVERAGE DEAD IN % AFTER 8 DAYS ([2]; Table 47, Acetamiprid alone, 400 PPM AI) | AVERAGE DEAD IN % AFTER 8 DAYS ([2]; Table 47, Acetamiprid alone, 800 PPM AI) | AVERAGE DEAD IN % AFTER 8 DAYS ([2]; Table 48, Acetamiprid alone, 50 PPM AI) | AVERAGE DEAD IN % AFTER 8 DAYS ([2]; Table 48, Acetamiprid alone, 100 PPM AI) | AVERAGE DEAD IN % AFTER 8 DAYS ([2]; Table 48, Acetamiprid alone, 200 PPM AI) | AVERAGE DEAD IN % AFTER 8 DAYS ([2]; Table 48, Acetamiprid alone, 400 PPM AI) | AVERAGE DEAD IN % AFTER 8 DAYS ([2]; Table 48, Acetamiprid alone, 800 PPM AI)
27%: AVERAGE DEAD IN % AFTER 6 DAYS ([1]; 1.6 PPM AI)
